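Values below derive from 48-hour exposures of cells grown in 96-well plates, with endpoints linearly interpolated between the two concentrations bracketing the appropriate inhibition level. TGI marks complete inhibition of growth.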
Experiments:
Assay in all cases: DTP human tumour cell line panel, 48 h
[1] = test system: T-47D breast
[2] = test system: ACHN renal
[3] = test system: NCI-H23 lung
[4] = test system: HT29 colon
[5] = test system: CAKI-1 renal
[6] = test system: KM12 colon
[7] = test system: A549 NSCLC
[8] = test system: LOX IMVI melanoma
[9] = test system: HCT-116 colon
[10] = test system: HL-60(TB) leukemia
[11] = test system: NCI-H522 lung
[12] = test system: IGROV1 ovarian
[13] = test system: COLO 205 colon
[14] = test system: OVCAR-4 ovarian
[15] = test system: U251 CNS
[16] = test system: TK-10 renal
[17] = test system: NCI/ADR-RES ovarian
[18] = test system: HCT-15 colon
[19] = test system: MALME-3M melanoma
[20] = test system: SR leukemia
[21] = test system: MDA-N
[22] = test system: SK-MEL-28 melanoma
[23] = test system: OVCAR-3 ovarian
[24] = test system: OVCAR-8 ovarian
[25] = test system: NCI-H460 lung
[26] = test system: SK-MEL-5 melanoma
[27] = test system: HOP-92 NSCLC
[28] = test system: OVCAR-5 ovarian
[29] = test system: BT-549 breast
[30] = test system: NCI-H226 lung
[31] = test system: PC-3 prostate
[32] = test system: HOP-62 NSCLC
[33] = test system: HCC-2998 colon
[34] = test system: SF-295 CNS
[35] = test system: 786-0 renal
[36] = test system: SF-268 CNS
[37] = test system: MCF7 breast
[38] = test system: SW-620 colon
[39] = test system: CCRF-CEM leukemia
[40] = test system: M14 melanoma
[41] = test system: EKVX NSCLC
[42] = test system: MDA-MB-231 breast
[43] = test system: UACC-62 melanoma
[44] = test system: HS 578T breast
[45] = test system: SNB-19 CNS
[46] = test system: A498 renal
[47] = test system: K-562 leukemia
[48] = test system: SK-OV-3 ovarian
[49] = test system: RXF 393 renal
[50] = test system: MOLT-4 leukemia
[51] = test system: SN12C renal
[52] = test system: MDA-MB-435
[53] = test system: UACC-257 melanoma
[54] = test system: RPMI-8226 leukemia
[55] = test system: SNB-75 CNS
[56] = test system: SK-MEL-2 melanoma
[57] = test system: DU-145 prostate
[58] = test system: SF-539 CNS
[59] = test system: UO-31 renal

SMILES: COc1cc([C@@H]2c3cc4c(cc3[C@@H](Nc3ccc(N=Cc5ccc(C(=O)O[C@@H](C(=O)O[C@H]6C[C@@]7(O)[C@@H](OC(=O)c8ccccc8)[C@@H]8[C@]9(OC(C)=O)CO[C@@H]9C[C@H](O)[C@@]8(C)C(=O)[C@H](OC(C)=O)C(=C6C)C7(C)C)[C@@H](NC(=O)c6ccccc6)c6ccccc6)cc5)cc3)[C@H]3COC(=O)[C@H]23)OCO4)cc(OC)c1O
- TGI [1]: > 50 µM
- TGI [2]: 10.5 µM
- TGI [3]: > 38.9 µM
- TGI [4]: > 50 µM
- TGI [5]: 14.4 µM
- TGI [6]: > 50 µM
- TGI [7]: > 50 µM
- TGI [8]: > 50 µM
- TGI [9]: > 50 µM
- TGI [10]: 9.73 µM
- TGI [11]: > 50 µM
- TGI [12]: > 50 µM
- TGI [13]: > 50 µM
- TGI [14]: > 50 µM
- TGI [15]: 35.4 µM
- TGI [16]: > 50 µM
- TGI [17]: > 50 µM
- TGI [18]: > 50 µM
- TGI [19]: > 50 µM
- TGI [20]: 0.35 µM
- TGI [21]: > 50 µM
- TGI [22]: > 50 µM
- TGI [23]: > 50 µM
- TGI [24]: > 50 µM
- TGI [25]: 15.9 µM
- TGI [26]: > 42.9 µM
- TGI [27]: > 50 µM
- TGI [28]: > 39.1 µM
- TGI [29]: > 50 µM
- TGI [30]: 29.3 µM
- TGI [31]: > 50 µM
- TGI [32]: > 40.2 µM
- TGI [33]: > 50 µM
- TGI [34]: > 27.7 µM
- TGI [35]: 9.53 µM
- TGI [36]: > 45.6 µM
- TGI [37]: > 50 µM
- TGI [38]: > 50 µM
- TGI [39]: 11 µM
- TGI [40]: > 50 µM
- TGI [41]: > 50 µM
- TGI [42]: > 50 µM
- TGI [43]: > 50 µM
- TGI [44]: > 50 µM
- TGI [45]: > 50 µM
- TGI [46]: 4.48 µM
- TGI [47]: > 22.5 µM
- TGI [48]: > 35.8 µM
- TGI [49]: > 50 µM
- TGI [50]: 10.5 µM
- TGI [51]: 17.2 µM
- TGI [52]: > 50 µM
- TGI [53]: > 50 µM
- TGI [54]: 28.2 µM
- TGI [55]: 37.2 µM
- TGI [56]: > 50 µM
- TGI [57]: 17.2 µM
- TGI [58]: > 47.3 µM

SMILES: Cc1ccc(O)c(C(c2ccc(C(c3cc(C)ccc3O)c3cc(C)ccc3O)cc2)c2cc(C)ccc2O)c1
- TGI [59]: 3.25 µM
- TGI [1]: 3.23 µM
- TGI [2]: 3.17 µM
- TGI [3]: 3.25 µM
- TGI [4]: 3.57 µM
- TGI [5]: 2.92 µM
- TGI [6]: 3.09 µM
- TGI [7]: 3.23 µM
- TGI [8]: 3.38 µM
- TGI [9]: 3.04 µM
- TGI [10]: 5.47 µM
- TGI [11]: 3.62 µM
- TGI [12]: 3.16 µM
- TGI [13]: 2.75 µM
- TGI [14]: 3.22 µM
- TGI [15]: 3.82 µM
- TGI [16]: 2.93 µM
- TGI [17]: 3.85 µM
- TGI [18]: 3.2 µM
- TGI [19]: 3.45 µM
- TGI [20]: 6.33 µM
- TGI [21]: 2.87 µM
- TGI [22]: 3.5 µM
- TGI [23]: 3.86 µM
- TGI [24]: 3.41 µM
- TGI [26]: 3.22 µM
- TGI [27]: 3.81 µM
- TGI [28]: 3.28 µM
- TGI [29]: 3.49 µM
- TGI [30]: 3.61 µM
- TGI [31]: 3 µM
- TGI [32]: 4.36 µM
- TGI [33]: 3.31 µM
- TGI [34]: 4.01 µM
- TGI [35]: 3.11 µM
- TGI [36]: 3.31 µM
- TGI [37]: 4.36 µM
- TGI [38]: 3.48 µM
- TGI [39]: 5.63 µM
- TGI [40]: 3.36 µM
- TGI [41]: 3.57 µM
- TGI [42]: 2.67 µM
- TGI [43]: 3.15 µM
- TGI [44]: 4.7 µM
- TGI [45]: 2.97 µM
- TGI [46]: 2.91 µM
- TGI [47]: 3.56 µM
- TGI [48]: 3.27 µM
- TGI [49]: 3.4 µM
- TGI [50]: > 100 µM
- TGI [51]: 3.1 µM
- TGI [52]: 3.29 µM
- TGI [53]: 3.33 µM
- TGI [54]: 3.4 µM
- TGI [55]: 3.49 µM
- TGI [56]: 3.89 µM
- TGI [57]: 3.21 µM
- TGI [58]: 3.29 µM

Source: PubChem BioAssay (NCI)
